According to ChEMBL document CHEMBL5385856, “Novel 1,4,5,6-tetrahydrocyclopenta[d]imidazole-5-carboxamide-based JNK3 inhibitors: Design, synthesis, molecular docking, and therapeutic potential in neurodegenerative diseases” (Eur J Med Chem, 2023):

Test system: Cortical neurone
Assay: Neuroprotective activity against Abeta42-induced neuronal apoptosis in Sprague-Dawley rat primary cortical neuron cells assessed as cell viability at 20 uM preincubated for 90 mins followed by Abeta42 addition for 24 hrs and measured on day 5 by MTT assay (reference value: 52%)
Format: functional
Conditions: 120 h, time 5 day, read-out: Activity

Compound: Oc1ccc(/C=C/c2cc(O)cc(O)c2)cc1 [RESVERATROL]
- viability at 20 µM: 84.2%
